# Molecular target: T1, KRAS G12D (Homo sapiens, UniProt P01116, G12D)
# T1 construct: made in house; host or cells: Escherichia coli BL21 (DE3), pET28a
# Assay: Inhibitory activity on KRAS G12D nucleotide (GDP-GTP) exchange reaction in vitro (SOS1-dependent, BODIPY FL GDP)
# Format: biochemical
# Conditions: BODIPY FL GDP-bound recombinant KRAS G12D, 25° C. 1 hour preincubation, then SOS1 and GMPPNP 30 minutes at room temperature
# Excerpt: Test Example: Evaluation of Inhibitory Activity of Compounds of Examples 1-21 on KRAS G12D Nucleotide (GDP-GTP) Exchange Reaction In Vitro
# Recombinant KRAS G12D (conjugated N-terminus His6-tag, TEV protease cleavage site and KRAS G12D residues 1-169 (SEQ ID NO: 1), prepared by the method described below) and cleaved recombinant SOS1 (residues 564-1049 (SEQ ID NO: 2), prepared by the method described below) proteins were expressed in E. coli and purified by affinity chromatography.
# To prepare BODIPY FL (fluorescent dye) GDP-bound KRAS G12D protein, 50 μM KRAS G12D protein was incubated with 0.5 mM BODIPY FL GDP in a loading buffer (20 mM Tris-HCl (pH 7.5), 50 mM NaCl, 1 mM DTT and 2.5 mM EDTA) for 1 hour on ice. After the incubation, MgCl2 was added to a final concentration of 10 mM, followed by incubation at room temperature for 30 minutes.
# The mixture was allowed to pass through a NAP-5 column to remove free nucleotides, and purified BODIPY FL GDP-bound KRAS G12D protein was used for compound evaluation.
# For the measurement of the inhibitory activity of compounds on GDP-GTP exchange rate of recombinant KRAS G12D, BODIPY FL GDP-bound KRAS G12D protein was incubated with various concentrations of compounds of Formula (I), i.e., compounds of Examples 1-21, in a reaction buffer (20 mM Tris-HCl (pH 7.5), 100 mM NaCl, 1 mM MgCl2, 2 mM DTT, 0.1% Tween 20) at 25° C. for 1 hour.
# After the incubation, recombinant SOS1 and GMPPNP (guanosine-5′-[(β,γ)-imido]triphosphate, tetralithium salt) (Jena Bioscience GmbH, Jena, Germany) were added and incubated at room temperature for 30 minutes to proceed SOS1-dependent GDP-GTP exchange reaction on KRAS G12D. Replacement of BODIPY FL GDP by GMPPNP was measured by calculating the ratio of fluorescence intensities of BODIPY FL before and after the exchange reaction.
# Inhibition % was calculated by setting the fluorescence ratio from the reaction without test compound (DMSO control) and the fluorescence ratio from the reaction without SOS1 and GMPPNP as 0% and 100% inhibition, respectively. IC50 values were calculated from a dose titration curve using curve fitting by XLfit software (IDBS, Boston, Massachusetts, US).
# T1 sequence (P01116 with tags, fused parts or gaps isoform P01116-2 G12D): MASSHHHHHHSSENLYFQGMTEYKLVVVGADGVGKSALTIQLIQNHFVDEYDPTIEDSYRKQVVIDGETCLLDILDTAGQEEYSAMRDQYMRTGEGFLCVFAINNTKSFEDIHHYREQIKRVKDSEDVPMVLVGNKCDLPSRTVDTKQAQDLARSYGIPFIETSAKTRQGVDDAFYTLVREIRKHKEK
row,IC50 [µM],SMILES
1,43.7,C[C@@H]1NC[C@H]1N(C)C(=O)c1c(Cl)nc(CNc2n[nH]c3cc(Cl)c(C(C)(C)C)cc23)n1C (relative stereo) [Example 11]
2,17.1,"C[C@H]1CNC[C@@H]1N(C)C(=O)c1c(Cl)nc(CNc2n[nH]c3cc(Cl)c(C(C)(C)C)cc23)n1C (relative stereo) [Example 13, 2-(((5-(tert-butyl)-6-chloro-1H-indazol-3-yl)amino)methyl)-4-chloro-N,1-dimethyl-N-(trans-4-methylpyrrolidin-3-yl)-1H-imidazole-5-carboxamide]"
3,43.1,"C[C@@H]1CNC[C@@H]1N(C)C(=O)c1c(Cl)nc(CNc2n[nH]c3cc(Cl)c(C(C)(C)C)cc23)n1C (relative stereo) [Example 14, 2-(((5-(tert-butyl)-6-chloro-1H-indazol-3-yl)amino)methyl)-4-chloro-N,1-dimethyl-N-(cis-4-methylpyrrolidin-3-yl)-1H-imidazole-5-carboxamide]"
4,20.7,"CN(C(=O)c1c(Cl)nc(CNc2n[nH]c3cc(Cl)c(C(C)(C)C)cc23)n1C)C1CNC1 [Example 1, N-(azetidin-3-yl)-2-(((5-(tert-butyl)-6-chloro-1H-indazol-3-yl)amino)methyl)-4-chloro-N,1-dimethyl-1H-imidazole-5-carboxamide]"
5,12.4,"CN(C(=O)c1c(Cl)nc(CNc2n[nH]c3cc(Cl)c(C(C)(C)C)cc23)n1C)[C@H]1CCNC1 [Example 2, (S)-2-(((5-(tert-butyl)-6-chloro-1H-indazol-3-yl)amino)methyl)-4-chloro-N,1-dimethyl-N-(pyrrolidin-3-yl)-1H-imidazole-5-carboxamide]"
6,18.7,"CN(C(=O)c1c(Cl)nc(CNc2n[nH]c3cc(Cl)c(C(C)(C)C)cc23)n1C)[C@@H]1CCNC1 [Example 3, (R)-2-(((5-(tert-butyl)-6-chloro-1H-indazol-3-yl)amino)methyl)-4-chloro-N,1-dimethyl-N-(pyrrolidin-3-yl)-1H-imidazole-5-carboxamide]"
7,38,"Cn1c(CNc2n[nH]c3cc(Cl)c(C(C)(C)C)cc23)nc(Cl)c1C(=O)N1CCCNCC1 [Example 4, (2-(((5-(tert-butyl)-6-chloro-1H-indazol-3-yl)amino)methyl)-4-chloro-1-methyl-1H-imidazol-5-yl)(1,4-diazepan-1-yl)methanone]"
8,1.3,"CC(C)N1CC[C@@H](n2c(CNc3n[nH]c4cc(Cl)c(C(C)(C)C)cc34)nc(Cl)c2C(=O)N(C)[C@@H]2CCNC2)C1 [Example 5, 2-(((5-(tert-butyl)-6-chloro-1H-indazol-3-yl)amino)methyl)-4-chloro-1-((R)-1-isopropylpyrrolidin-3-yl)-N-methyl-N-((R)-pyrrolidin-3-yl)-1H-imidazole-5-carboxamide]"
9,3.8,"CC(C)N1CC[C@@H](n2c(CNc3n[nH]c4cc(Cl)c(C(C)(C)C)cc34)nc(Cl)c2C(=O)N(C)C2CNC2)C1 [Example 6, (R)-N-(azetidin-3-yl)-2-(((5-(tert-butyl)-6-chloro-1H-indazol-3-yl)amino)methyl)-4-chloro-1-(1-isopropylpyrrolidin-3-yl)-N-methyl-1H-imidazole-5-carboxamide]"
10,43.5,"CN(CCN)C(=O)c1c(Cl)nc(CNc2n[nH]c3cc(Cl)c(C(C)(C)C)cc23)n1C [Example 7, N-(2-aminoethyl)-2-(((5-(tert-butyl)-6-chloro-1H-indazol-3-yl)amino)methyl)-4-chloro-N,1-dimethyl-1H-imidazole-5-carboxamide]"
11,35.3,"CC(C)N1CC[C@@H](n2c(CNc3n[nH]c4cc(Cl)c(C(C)(C)C)cc34)nc(Cl)c2C(=O)N(C)CCN)C1 [Example 8, (R)-N-(2-aminoethyl)-2-(((5-(tert-butyl)-6-chloro-1H-indazol-3-yl)amino)methyl)-4-chloro-1-(1-isopropylpyrrolidin-3-yl)-N-methyl-1H-imidazole-5-carboxamide]"
12,33.5,"CC[C@@H]1CNC[C@@H]1N(C)C(=O)c1c(Cl)nc(CNc2n[nH]c3cc(Cl)c(C(C)(C)C)cc23)n1C [Example 9, 2-(((5-(tert-butyl)-6-chloro-1H-indazol-3-yl)amino)methyl)-4-chloro-N-((3R,4R)-4-ethylpyrrolidin-3-yl)-N,1-dimethyl-1H-imidazole-5-carboxamide]"
13,46.9,"CN(C(=O)c1c(Cl)nc(CNc2n[nH]c3cc(Cl)c(C(C)(C)C)cc23)n1C)[C@@H]1CNCC12CC2 [Example 10, (S)-2-(((5-(tert-butyl)-6-chloro-1H-indazol-3-yl)amino)methyl)-4-chloro-N,1-dimethyl-N-(5-azaspiro[2.4]heptan-7-yl)-1H-imidazole-5-carboxamide]"
14,38.2,"CN[C@H]1C[C@@H]1N(C)C(=O)c1c(Cl)nc(CNc2n[nH]c3cc(Cl)c(C(C)(C)C)cc23)n1C [Example 12, 2-(((5-(tert-butyl)-6-chloro-1H-indazol-3-yl)amino)methyl)-4-chloro-N,1-dimethyl-N-((1S,2S)-2-(methylamino)cyclopropyl)-1H-imidazole-5-carboxamide]"
15,32.9,"CN(C(=O)c1c(Cl)nc(CNc2cc(C(C)(C)C)c(Cl)cc2O)n1C)[C@@H]1CCNC1 [Example 15, (R)-2-(((5-(tert-butyl)-4-chloro-2-hydroxyphenyl)amino)methyl)-4-chloro-N,1-dimethyl-N-(pyrrolidin-3-yl)-1H-imidazole-5-carboxamide]"
16,26.2,"CN(C(=O)c1c(Cl)nc(CNc2cc(C(C)(C)C)c(Cl)cc2O)n1C)[C@H]1CCNC1 [Example 16, (S)-2-(((5-(tert-butyl)-4-chloro-2-hydroxyphenyl)amino)methyl)-4-chloro-N,1-dimethyl-N-(pyrrolidin-3-yl)-1H-imidazole-5-carboxamide]"
17,12,"CN(C(=O)c1c(Cl)nc(CNc2cc(C(C)(C)C)c(Cl)cc2O)n1C)C1CNC1 [Example 17, N-(azetidin-3-yl)-2-(((5-(tert-butyl)-4-chloro-2-hydroxyphenyl)amino)methyl)-4-chloro-N,1-dimethyl-1H-imidazole-5-carboxamide]"
18,1.6,"CC(C)N1CC[C@@H](n2c(CNc3cc(C(C)(C)C)c(Cl)cc3O)nc(Cl)c2C(=O)N(C)[C@@H]2CCNC2)C1 [Example 18, 2-(((5-(tert-butyl)-4-chloro-2-hydroxyphenyl)amino)methyl)-4-chloro-1-((R)-1-isopropylpyrrolidin-3-yl)-N-methyl-N-((R)-pyrrolidin-3-yl)-1H-imidazole-5-carboxamide]"
19,3.7,"CC(C)N1CC[C@@H](n2c(CNc3cc(C(C)(C)C)c(Cl)cc3O)nc(Cl)c2C(=O)N(C)[C@H]2CCNC2)C1 [Example 19, 2-(((5-(tert-butyl)-4-chloro-2-hydroxyphenyl)amino)methyl)-4-chloro-1-((R)-1-isopropylpyrrolidin-3-yl)-N-methyl-N-((S)-pyrrolidin-3-yl)-1H-imidazole-5-carboxamide]"
20,3.2,"CC(C)N1CC[C@@H](n2c(CNc3cc(C(C)(C)C)c(Cl)cc3O)nc(Cl)c2C(=O)N(C)C2CNC2)C1 [Example 20, (R)-N-(azetidin-3-yl)-2-(((5-(tert-butyl)-4-chloro-2-hydroxyphenyl)amino)methyl)-4-chloro-1-(1-isopropylpyrrolidin-3-yl)-N-methyl-1H-imidazole-5-carboxamide]"
21,31.5,"CN(C(=O)c1c(Cl)nc(CNc2n[nH]c3cc(Cl)c(C(C)(C)C)cc23)n1C)C1CCNC1 (stereo not drawn) [Example 21, 2-(((5-(tert-butyl)-6-chloro-1H-indazol-3-yl)amino)methyl)-4-chloro-N,1-dimethyl-N-(pyrrolidin-3-yl)-1H-imidazole-5-carboxamide]"
